Measurements published in US10988477B2 (Merck Patent GmbH, priority 2018, dated 2021).

Tests used:
GCN2 kinase = GCN2 kinase (Homo sapiens, UniProt Q9P2K8); test: GCN2 enzyme inhibition assay (Transcreener ADP2 fluorescence polarization); assay type: biochemical; conditions: compounds of Formula II; 280 μM ATP, 4 nM GCN2 kinase
Method in brief: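 4 nM GCN2 + 200 μM (RS)7 + compound (0–8 μM), 10 min preinc.; start with ATP (280 μM final); 1 h, 25 °C; pH 7.5 Tris/NaCl/MgCl2/DTT; ADP FP readout; IC50, Ki(app) via tight-binding fit.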

[1] = target: intracellular GCN2 (phosphorylation of the GCN2 substrate eIF2α) (Homo sapiens, UniProt Q9P2K8); test: GCN2 cellular inhibition assay (AlphaScreen SureFire P-eIF2α Ser51, borrelidin-treated U2OS cells); assay type: cell-based; conditions: compounds of Formula II; biomarker assay, phosphorylated eIF2α Ser51 in borrelidin-treated U2OS cells
intracellular GCN2 (phosphorylation of the GCN2 substrate eIF2α), sequence (Q9P2K8 whole entry): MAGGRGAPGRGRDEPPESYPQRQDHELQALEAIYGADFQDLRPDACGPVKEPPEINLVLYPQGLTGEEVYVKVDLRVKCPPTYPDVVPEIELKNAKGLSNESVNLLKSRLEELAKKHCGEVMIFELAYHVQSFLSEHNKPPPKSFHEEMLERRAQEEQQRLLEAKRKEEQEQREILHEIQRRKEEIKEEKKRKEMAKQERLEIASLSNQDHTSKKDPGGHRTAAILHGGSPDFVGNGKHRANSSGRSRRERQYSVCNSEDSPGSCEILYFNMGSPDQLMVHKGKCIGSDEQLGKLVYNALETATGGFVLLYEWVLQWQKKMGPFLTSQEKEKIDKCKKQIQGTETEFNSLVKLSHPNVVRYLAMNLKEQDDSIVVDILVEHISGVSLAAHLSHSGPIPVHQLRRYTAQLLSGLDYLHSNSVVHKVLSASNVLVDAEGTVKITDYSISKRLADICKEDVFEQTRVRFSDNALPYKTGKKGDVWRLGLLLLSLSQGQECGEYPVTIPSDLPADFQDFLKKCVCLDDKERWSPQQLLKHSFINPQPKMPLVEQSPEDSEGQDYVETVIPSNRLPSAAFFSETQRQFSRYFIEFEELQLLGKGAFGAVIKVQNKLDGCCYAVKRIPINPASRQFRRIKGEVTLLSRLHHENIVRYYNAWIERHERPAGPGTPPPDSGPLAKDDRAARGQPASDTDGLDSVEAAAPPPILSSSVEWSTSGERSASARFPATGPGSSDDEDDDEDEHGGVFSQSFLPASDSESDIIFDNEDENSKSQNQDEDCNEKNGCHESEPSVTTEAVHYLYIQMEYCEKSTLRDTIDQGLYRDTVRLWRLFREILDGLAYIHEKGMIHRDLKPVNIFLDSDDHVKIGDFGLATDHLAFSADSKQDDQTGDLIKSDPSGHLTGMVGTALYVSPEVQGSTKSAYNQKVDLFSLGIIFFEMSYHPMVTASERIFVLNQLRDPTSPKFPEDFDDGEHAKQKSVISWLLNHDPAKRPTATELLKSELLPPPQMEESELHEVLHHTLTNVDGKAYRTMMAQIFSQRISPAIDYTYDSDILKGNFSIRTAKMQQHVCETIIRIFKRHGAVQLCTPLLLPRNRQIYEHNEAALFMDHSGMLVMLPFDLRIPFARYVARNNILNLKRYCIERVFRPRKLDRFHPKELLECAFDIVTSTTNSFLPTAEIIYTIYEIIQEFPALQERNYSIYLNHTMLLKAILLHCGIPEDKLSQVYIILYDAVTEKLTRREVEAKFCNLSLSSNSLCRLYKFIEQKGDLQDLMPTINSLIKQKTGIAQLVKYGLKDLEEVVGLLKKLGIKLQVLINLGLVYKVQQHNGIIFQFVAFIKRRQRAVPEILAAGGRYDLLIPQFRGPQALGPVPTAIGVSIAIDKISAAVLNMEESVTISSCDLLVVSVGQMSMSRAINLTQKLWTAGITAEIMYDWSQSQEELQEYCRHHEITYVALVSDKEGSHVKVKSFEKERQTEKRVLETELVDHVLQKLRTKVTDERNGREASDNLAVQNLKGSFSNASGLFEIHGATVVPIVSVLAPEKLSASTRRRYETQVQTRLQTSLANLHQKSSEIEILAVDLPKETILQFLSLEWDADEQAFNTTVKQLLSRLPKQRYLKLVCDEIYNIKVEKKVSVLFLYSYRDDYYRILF
Method in brief: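 U2OS, overnight attach; cpd 4-fold serial dil. from 40 μM final; borrelidin 10 μM, 1 h 37 °C/5% CO2; lyse; AlphaScreen P-eIF2α Ser51 (acceptor 2 h, donor overnight, RT, dark); % inhib. vs borrelidin-only.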

GCN2 kinase, sequence (Q9P2K8 whole entry): as above

Compound | Ki (GCN2 kinase) [nM] | IC50 [1] [nM]
CC1C(CNS(C)(=O)=O)NCCN1c1cc(-c2cnc3ccc(C(F)F)nn23)ncn1 (stereo not drawn) [II-313, N-[[4-[6-[6-(Difluoromethyl)imidazo[1,2-b]pyridazin-3-yl]pyrimidin-4-yl]-3-methyl-piperazin-2-yl]methyl]methanesulfonamide] | < 10 | < 500
OC[C@@H]1C[C@@H](C(F)(F)F)CN(c2cc(-c3cnc4ccc(C(F)F)nn34)ncn2)C1 [II-314, ((3R,5R)-1-(6-(6-(Difluoromethyl)imidazo[1,2-b]pyridazin-3-yl)pyrimidin-4-yl)-5-(trifluoromethyl)piperidin-3-yl)methanol] | 10 to 1000 | > 5000
OC[C@H]1C[C@@H](C(F)(F)F)CN(c2cc(-c3cnc4ccc(C(F)F)nn34)ncn2)C1 [II-315, ((3S,5R)-1-(6-(6-(Difluoromethyl)imidazo[1,2-b]pyridazin-3-yl)pyrimidin-4-yl)-5-(trifluoromethyl)piperidin-3-yl)methanol] | 10 to 1000 | > 5000
CS(=O)(=O)N1CC2CCCN(c3cc(-c4cnc5ccc(C(F)F)nn45)ncn3)C2C1 (stereo not drawn) [II-320, 6-(Difluoromethyl)-3-(6-(6-(methylsulfonyl)octahydro-1H-pyrrolo[3,4-b]pyridin-1-yl)pyrimidin-4-yl)imidazo[1,2-b]pyridazine] | 10 to 1000 | > 5000
C[C@H]1CN(c2cc(-c3cnc4ccc(C(C)(F)F)nn34)ncn2)C[C@@H](CNS(C)(=O)=O)C1(F)F [II-321, N-(((3S,5S)-1-(6-(6-(1,1-Difluoroethyl)imidazo[1,2-b]pyridazin-3-yl)pyrimidin-4-yl)-4,4-difluoro-5-methylpiperidin-3-yl)methyl)methanesulfonamide] | 10 to 1000 | > 5000

Now from value to compound:

Ki (GCN2 kinase) [nM] | IC50 [1] [nM] | Compound
10 to 1000 | 500 to 5000 | CN(CC1CCCN(c2cc(-c3cnc4ccc(C(F)F)nn34)ncn2)C1)S(C)(=O)=O (stereo not drawn) [II-310, N-((1-(6-(6-(Difluoromethyl)imidazo[1,2-b]pyridazin-3-yl)pyrimidin-4-yl)piperidin-3-yl)methyl)-N-methylmethanesulfonamide]
< 10 | < 500 | CN(CC1CCCN(c2cc(-c3cnc4ccc(C(F)F)nn34)ncn2)C1)S(N)(=O)=O (stereo not drawn) [II-311, 1-((1-(6-(6-(Difluoromethyl)imidazo[1,2-b]pyridazin-3-yl)pyrimidin-4-yl)piperidin-3-yl)methyl)-1-methylsulfuric diamide]
< 10 | < 500 | C[C@H]1CN(c2cc(-c3cnc4ccc(C(F)F)nn34)ncn2)C[C@@H](CNS(N)(=O)=O)C1(F)F [II-316, 1-(((3S,5S)-1-(6-(6-(Difluoromethyl)imidazo[1,2-b]pyridazin-3-yl)pyrimidin-4-yl)-4,4-difluoro-5-methylpiperidin-3-yl)methyl)sulfuric diamide]
10 to 1000 | 500 to 5000 | NS(=O)(=O)CCC1CCCN(c2cc(-c3cnc4ccc(C(F)F)nn34)ncn2)C1 (stereo not drawn) [II-317, 2-(1-(6-(6-(Difluoromethyl)imidazo[12-b]pyridazin-3-yl)pyrimidin-4-yl)piperidin-3-yl)ethane-1-sulfonamide]
10 to 1000 | 500 to 5000 | NS(=O)(=O)CCC1CN(c2cc(-c3cnc4ccc(C(F)F)nn34)ncn2)CCO1 (stereo not drawn) [II-318, 2-(4-(6-(6-(Difluoromethyl)imidazo[1,2-b]pyridazin-3-yl)pyrimidin-4-yl)morpholin-2-yl)ethane-1-sulfonamide]
10 to 1000 | > 5000 | CS(=O)(=O)N1CC2OCCN(c3cc(-c4cnc5ccc(C(F)F)nn45)ncn3)C2C1 (stereo not drawn) [II-319, 4-(6-(6-(Difluoromethyl)imidazo[1,2-b]pyridazin-3-yl)pyrimidin-4-yl)-6-(methylsulfonyl)octahydropyrrolo[3,4-b][1,4]oxazine]
10 to 1000 | > 5000 | CC(F)(F)c1ccc2ncc(-c3cc(N4CCO[C@H](CNS(C)(=O)=O)C4)ncn3)n2n1 [II-322, (S)—N-((4-(6-(6-(1,1-Difluoroethyl)imidazo[1,2-b]pyridazin-3-yl)pyrimidin-4-yl)morpholin-2-yl)methyl)methanesulfonamide]
